What is called melting point is the temperature of the solid-liquid transition. By Emax is commonly meant the greatest response seen or fitted, relative to the assay's reference.

Read-outs that look alike come from different tables or passages of the source.

These results are taken from patent US20010053774A1, “Non-steroidal ligands for the estrogen receptor” (GLAXO WELLCOME INC.., priority 1994, published 2001).

Series [1] has as its target rat estrogen receptor (Rattus norvegicus, UniProt P06211). The following applies: for receptor affinity in the receptor binding assay (in words): comparison within the amide analog series. An excerpt:
Those skilled in the art will appreciate that several acceptable varieties of rat estrogen receptor binding assays are known and available for initial screening of the compounds of the present invention with respect to their ability to bind to the appropriate receptor. Compounds were initially evaluated as set forth below in an rat estrogen receptor binding assay for the ability to inhibit the binding of [^3H]-estradiol.

For series [2], the system named is Ishikawa human endometrioma cell line. Briefly: Ishikawa cell functional assay of estrogenic activity (alkaline phosphatase induction). Format: cell-based. As to conditions: for EC50: Ishikawa-Var I cells, 2 days incubation, estrogen agonist activity, read-out: EC50 (concentration inducing 50% of maximal alkaline phosphatase activity); for Emax (maximal alkaline phosphatase activity) / Emax: percentage of the alkaline phosphatase activity induced by a saturating concentration of estradiol; for agonist activity (Emax) in the Ishikawa cell functional assay (in words): comparison with tamoxifen or within the series; for Emax: Ishikawa, read-out: Emax (maximal alkaline phosphatase activity). On the procedure:
Subconfluent Ishikawa-Var I cells were removed from maintenance growth conditions and resuspended in phenol red-free DMEM-F12 containing 5% charcoal stripped FBS and 2 mM glutamine at a concentration of 58,500 cells/mL. Cells were plated at a density of 13,000 cells/cm^2 and placed in an incubator (37° C., 5% CO2) for 3 days. Cells were harvested and resuspended in phenol red-free DMEM-F12 containing 1% charcoal stripped FBS, 2 mM glutamine, 100 Units/mL penicillin and 100 μg/mL streptomycin to a concentration of 83,000 cells/mL. Cells were seeded at a density of 8300 cells/well in 96 well plates and allowed to attach overnight. Appropriate drug treatments at 2× concentrations were added in 0.1 mL of medium containing 0.2% DMSO. Plates were incubated for 2 days, media was aspirated and plates washed once with 300 μL 0.9% sterile saline. Plates were frozen at −70° C. and then warmed to RT. The attached cells were assayed for alkaline phosphatase activity by addition of 200 μL of 5 mM p-nitrophenylphosphate in 1 M diethanolamine, pH 10.4, containing 0.1% (w/v) Triton X-100, incubation at 37° C. for 30 min and measurement of absorbance at 405 nm on a Molecular Devices ThermoMax plate reader.

Series [3] relates to 21 day old female SD rats. Briefly: in-vivo anti-uterotrophic activity in immature rats (uterine weight/body weight). Also on record: species or system rat. As to conditions: 10 μmol/kg by gavage for 3 days, compared with tamoxifen. On the procedure: In order to evaluate the compounds set forth above for in-vivo anti-uterotrophic activity, groups of five 21 day old female SD rats (30-35 g) were weighed and the average weights recorded for each treatment group as illustrated in FIG. 1. Stock solutions (10×) of the triphenylethylene analogs in ethanol were diluted with 0.5% methyl cellulose and 10 μmol/kg was dosed by gavage to the animals. Estradiol was dissolved in sesame oil and 100 nmol/kg dosed by subcutaneous injection. Animals were dosed for 3 days and sacrificed on day 4 by CO2 asphyxiation. The body weights were obtained, uteri removed, blotted and weighed. Data is expressed as uterine weight/body weight±standard error. Solid bars represent data from animals dosed with test compound alone. Open bars represent data from animals dosed with test compounds 6h prior to a dose of estradiol.

Sequence of rat estrogen receptor (P06211 whole entry): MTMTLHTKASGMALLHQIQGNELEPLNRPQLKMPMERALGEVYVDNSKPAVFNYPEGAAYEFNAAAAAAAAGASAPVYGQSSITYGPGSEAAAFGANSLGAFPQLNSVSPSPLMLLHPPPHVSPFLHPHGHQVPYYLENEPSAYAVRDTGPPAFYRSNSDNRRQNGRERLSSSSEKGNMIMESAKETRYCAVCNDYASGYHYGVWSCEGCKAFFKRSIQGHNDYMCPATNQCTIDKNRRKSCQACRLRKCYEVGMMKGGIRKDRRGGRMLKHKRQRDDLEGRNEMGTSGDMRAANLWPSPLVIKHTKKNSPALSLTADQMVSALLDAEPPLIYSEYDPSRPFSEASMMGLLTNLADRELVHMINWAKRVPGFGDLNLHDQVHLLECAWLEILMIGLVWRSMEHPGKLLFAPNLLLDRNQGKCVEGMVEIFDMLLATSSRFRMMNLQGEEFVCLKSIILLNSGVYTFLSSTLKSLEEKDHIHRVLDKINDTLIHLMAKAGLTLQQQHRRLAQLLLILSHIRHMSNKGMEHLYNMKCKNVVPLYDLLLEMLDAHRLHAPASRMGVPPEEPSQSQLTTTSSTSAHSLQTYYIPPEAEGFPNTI

Consider `CCC(=C(c1ccccc1)c1ccc(C=CC(=O)OC(C)(C)C)cc1)c1ccccc1` [Compound No. 8, 3-[4-(1,2-Diphenyl-but-1-enyl)-phenyl]-acrylic acid tert-butyl ester], for which the melting point was in the range of 139 to 140 °C.

As to `CCC(=C(c1ccccc1)c1ccc(C=CC(=O)N(C2CCCCC2)C2CCCCC2)cc1)c1ccccc1` [Compound No. 12, N,N-Dicyclohexyl-3-[4-(1,2-diphenyl-but-1-enyl)-phenyl] acrylamide], the “receptor affinity in the receptor binding assay (in words)” value in series [1] is “reduced receptor affinity”. Besides, in series [2], the EC50 stood at 70 nM and the “Emax (maximal alkaline phosphatase activity)” value turned out to be 19.4 ± 2.0%.

With `CCC(=C(c1ccccc1)c1ccc(C=CC(=O)N(CC)CCN(C)C)cc1)c1ccccc1` [compound 13, N-(2-Dimethylamino-ethyl)-3-[4-(1,2-diphenyl-but-1-enyl)-phenyl]-N-ethyl acrylamide], in series [2], the EC50 was 4.6 nM and the “Emax (maximal alkaline phosphatase activity)” value was 16.5 ± 1.7%.

As for `CCCCCCCCN(C)C(=O)C=Cc1ccc(C(=C(CC)c2ccccc2)c2ccccc2)cc1` [compound 14, 3-[4-(1,2-Diphenyl-but-1-enyl)-phenyl]-N-methyl-N-octyl acrylamide], in series [2], the EC50 is 12 nM, the “agonist activity (Emax) in the Ishikawa cell functional assay (in words)” value (“agonist activity (Emax)” for short) was “lowest residual agonist activity” and the “Emax (maximal alkaline phosphatase activity)” value is 6.3 ± 1.2%.

As to `CCC(=C(c1ccccc1)c1ccc(C=CC(=O)N(CC)CC)cc1)c1ccccc1` [Compound No. 1, 3-[4-(1,2-Diphenyl-but-1-enyl)-phenyl]-N,N-diethyl acrylamide], the “receptor affinity in the receptor binding assay (in words)” value in series [1] is on record as “highest affinity”. In addition, in series [1] (higher affinity than tamoxifen), the “estrogen receptor binding affinity relative to tamoxifen” value was “approx. 10 fold”. In addition, in series [2], the EC50 worked out at 2.3 nM, the “agonist activity (Emax)” value is listed as “significantly lower agonist activity (Emax) than tamoxifen” and the “Emax (maximal alkaline phosphatase activity)” value was 11.9 ± 1.2%.

In turn, `CCC(=C(c1ccccc1)c1ccc(C=CCO)cc1)c1ccccc1` [Compound No. 19, 3-[4-(1,2-Diphenyl-but-1-enyl)-phenyl]-prop-2-ene-1-ol] came in with a melting point of 80 to 83 °C.

On to `C[C@]12CC[C@@H]3c4ccc(O)cc4CC[C@H]3[C@@H]1CC[C@@H]2O` [Estradiol, estradiol, reference compound], for which the EC50 in series [2] (Homo sapiens, 48 h) stood at 0.01 nM. For the same molecule, the Emax in series [2] (Homo sapiens) is 100%.

Consider `CC/C(=C(\c1ccccc1)c1ccc(OCCN(C)C)cc1)c1ccccc1` [Tamoxifen, (Z)-1,2-diphenyl-1-[4-[2-(dimethylamino)ethoxy]phenyl]-1-butene, reference compound], for which, in series [2] (Homo sapiens, 48 h), the EC50 was found to be 33 nM. The Emax in series [2] (Homo sapiens) turned out to be 16.5 ± 0.6%.

For `CCC(=C(c1ccccc1)c1ccc(C2CC2C(=O)N(CC)CC)cc1)c1ccccc1` (stereo not shown) [compound 3, 2-[4-(1,2-Diphenyl-but-1-enyl)-phenyl]cyclopropanecarboxylic acid diethylamide], the melting point is 42 to 44 °C. Further, the EC50 in series [2] (Homo sapiens, 48 h) is 4.9 nM. Also, the Emax in series [2] (Homo sapiens) was 15.7 ± 1.8%.

As to `CCC(=C(c1ccccc1)c1ccc(C=CC(=O)NCCCO)cc1)c1ccccc1` [compound 22, 3-[4-(1,2-Diphenyl-but-1-enyl)-phenyl]-N-(3-hydroxy-propyl)-acrylamide], the melting point lay in the range of 144 to 146 °C. Besides, the EC50 in series [2] (Homo sapiens, 48 h) stood at 17 nM. In addition, the Emax in series [2] (Homo sapiens) was found to be 15.3 ± 2.4%.

Consider `CCC(=C(c1ccccc1)c1ccc(C=CC(=O)N2CCOCC2)cc1)c1ccccc1` [compound 10, 3-[4-(1,2-Diphenyl-but-1-enyl)-phenyl]-1-morpholin-4-yl-prop-2-en-1-one], for which the melting point was in the range of 150 to 154 °C. For the same molecule, the EC50 in series [2] (Homo sapiens, 48 h) was determined as 6.9 nM. In addition, the Emax in series [2] (Homo sapiens) turned out to be 14.8 ± 2.4%.

For `CCC(=C(c1ccccc1)c1ccc(C=CC(=S)N(CC)CC)cc1)c1ccccc1` [compound 21, 3-[4-(1,2-Diphenyl-but-1-enyl)-phenyl]-N,N-diethyl thioacrylamide], in series [2], the EC50 was determined as 6.9 nM and the “Emax (maximal alkaline phosphatase activity)” value turned out to be 18.8 ± 2.6%.

Turning to `CCC(=C(c1ccccc1)c1ccc(C=C(C)C(=O)N(CC)CC)cc1)c1ccccc1` [Compound No. 4, 3-[4-(1,2-Diphenyl-but-1-enyl)-phenyl]-N, N-diethyl-2-methyl-acrylamide], the EC50 in series [2] (Homo sapiens, 48 h) is 20 nM. Besides, the Emax in series [2] (Homo sapiens) worked out at 18.8 ± 2.3%.

`CCC(=C(c1ccccc1)c1ccc(C=Cc2noc(C)n2)cc1)c1ccccc1` [Compound No. 18, 3-{2-[4-(1,2-Diphenyl-but-1-enyl)-phenyl]-vinyl}-5-methyl-[1,2,4]-oxadiazole]: the melting point lay in the range of 158 to 159 °C.

`CCC(=C(c1ccccc1)c1ccc(C=CC(=O)NCCCOC)cc1)c1ccccc1` [compound 11, 3-[4-(1,2-Diphenyl-but-1-enyl)-phenyl]-N-(3-methoxy-propyl)-acrylamide]: the melting point was 132 to 135 °C. In addition, the EC50 in series [2] (Homo sapiens, 48 h) worked out at 11 nM. The Emax in series [2] (Homo sapiens) is 14 ± 1.5%.

With `CCC(=C(c1ccccc1)c1ccc(C=CC(N)=O)cc1)c1ccccc1` [compound 15, 3-[4-(1,2-Diphenyl-but-1-enyl)-phenyl]acrylamide], the melting point is 200 to 202 °C. Further, the EC50 in series [2] (Homo sapiens, 48 h) worked out at 8.6 nM. Further, the Emax in series [2] (Homo sapiens) is 8.9 ± 1.4%. For the same molecule, in series [2], the “agonist activity (Emax)” value is on record as “lowest residual agonist activity”. In addition, in series [3], the “residual agonist activity, uterine weight/body weight (FIG. 1)” value is on record as “less residual agonist activity than tamoxifen”.

`CCC(=C(c1ccccc1)c1ccc(C=CC(=O)OC)cc1)c1ccccc1` [Compound No. 6, 3-[4-(1,2-Diphenyl-but-1-enyl)-phenyl]-acrylic acid methyl ester] came in with a melting point of 133 to 135 °C.

In the case of `CCNC(=O)C=Cc1ccc(C(=C(CC)c2ccccc2)c2ccccc2)cc1` [compound 16, 3-[4-(1,2-Diphenyl-but-1-enyl)-phenyl]-N-ethyl acrylamide], in series [2], the EC50 was found to be 18 nM and the “Emax (maximal alkaline phosphatase activity)” value amounted to 11.8 ± 1.9%.

`CCC(=C(c1ccccc1)c1ccc(C=CC#N)cc1)c1ccccc1` [Compound No. 7, 3-[4-(1,2-Diphenyl-but-1-enyl)-phenyl]-acrylonitrile]: the melting point lay in the range of 101 to 102 °C.

For the molecule `CCC(=C(c1ccccc1)c1ccc(C(C)=CC(=O)N(CC)CC)cc1)c1ccccc1` [Compound No. 5, 3-[4-(1,2-Diphenyl-but-1-enyl)-phenyl]-but-2-enoic acid diethylamide], the melting point lay in the range of 109 to 111 °C. In series [2] (Homo sapiens, 48 h), the EC50 amounted to 7.3 nM. Further, the Emax in series [2] (Homo sapiens) is 15 ± 3%.

For the molecule `CCC(=C(c1ccccc1)c1ccc(C=CC(N)=NO)cc1)c1ccccc1` [compound 17, 1-Amino-3-[4-(1,2-diphenyl-but-1-enyl)-phenyl]-prop-2-ene-1-one oxime], the melting point fell in the range of 182 to 185 °C.
